Experimental data from patent US20210395226A1, “SUBSTITUTED ARYL COMPOUND AND PREPARATION METHOD THEREFOR AND USE THEREOF” (SICHUAN KELUN-BIOTECH BIOPHARMACEUTICAL CO., LTD., priority 2018, published 2021).
Like-named read-outs stand apart in the source and are kept apart here.

Tests used:
[1] = target: T1, Adenosine A1 receptor (human) membrane (Homo sapiens, UniProt P30542); assay: Determination of competitive inhibition constant (Ki) for adenosine A1 receptor, [3H]-DPCPX radioligand; type: binding; details: 1.0 nM [3H]-DPCPX
T1 construct: purchased PerkinElmer ES-010-M400UA
T1 sequence (P30542 1-326): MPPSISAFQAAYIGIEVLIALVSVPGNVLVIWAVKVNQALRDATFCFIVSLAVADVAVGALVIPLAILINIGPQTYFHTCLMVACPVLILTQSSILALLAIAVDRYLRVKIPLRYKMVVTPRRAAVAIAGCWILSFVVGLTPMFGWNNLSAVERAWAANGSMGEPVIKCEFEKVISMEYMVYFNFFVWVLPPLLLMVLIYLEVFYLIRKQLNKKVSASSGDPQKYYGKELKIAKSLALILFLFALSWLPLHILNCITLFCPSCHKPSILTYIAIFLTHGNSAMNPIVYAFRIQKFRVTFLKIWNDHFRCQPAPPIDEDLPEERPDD
Outline: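 Human A1 receptor membranes (2.5 μg/well) incubated with 1.0 nM [3H]-DPCPX and test compound for 1 h at room temperature in HEPES/MgCl2/CaCl2/NaCl buffer, pH 7.4; 1000 nM CGS-15943 defined low control. Bound radioactivity collected on PEI-treated GF/C filters and counted; IC50 converted to Ki via Cheng–Prusoff using ligand Kd.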

[2] = target: T2, Adenosine A2a receptor (human) membrane (Homo sapiens, UniProt P29274); assay: Determination of competitive inhibition constant (Ki) for adenosine A2a receptor, [3H]-CGS-21680 radioligand; type: binding; details: for Ki: human A2a receptor membrane, 6.0 nM [3H]-CGS-21680, read-out: Ki(A2a); for Ki(A1)/Ki(A2a): selectivity ratio A1 over A2a
T2 construct: purchased PerkinElmer RBHA2AM400UA
Outline: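 Human A2a receptor membranes (5.0 μg/well) were incubated 2 h at room temperature with [3H]-CGS-21680 (working concentration 6.0 nM) in 50 mM Tris-HCl pH 7.4, 10 mM MgCl2, 1 mM EDTA. Bound label was collected on PEI-treated GF/C filters and scintillation counted. Inhibition was scaled between 0.5% DMSO and 1000 nM CGS-15943 controls, IC50 was fitted, and Ki = IC50/(1 + [ligand]/Kd).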

[3] = Pharmacokinetics (PK) and distribution in brain tissue in rats; type: in vivo, male SD rats; details: for bioavailability / Cmax / AUC(0-t): male, SD; for bioavailability: plasma, oral 5 mg/kg compared with intravenous 1 mg/kg; for bioavailability / Plasma AUClast/brain AUClast: rat; for Cmax / AUC(0-t): rat plasma; for AUClast (brain): rat brain tissue
Method: Test Example 3: Study on Pharmacokinetics (PK) and Distribution in Brain Tissue in Rats
The compounds of the present application were administered to male SD rats by intravenous (IV) and intragastric (PO) respectively to investigate the pharmacokinetic characteristics. The dosages of IV and PO were 1 mg/kg and 5 mg/kg, respectively. The solvent for IV was a mixture of 5% DMSO, 5% Solutol (polyethylene glycol 15-hydroxystearate) and 90% saline, and the solvent for PO was 0.5% MC (methyl cellulose sodium). Before IV administration (0 h) and at 0.083 h, 0.25 h, 0.5 h, 1 h, 2 h, 4 h, 6 h, 8 h and 24 h time points after administration, blood samples were collected; before PO administration (0 h) and at 0.25 h, 0.5 h, 1 h, 2 h, 4 h, 6 h, 8 h and 24 h time points after administration, blood samples were collected; the blood samples were anticoagulated with EDTA.K2, and centrifuged to obtain plasma samples. For Compound 11, brain tissue samples were taken and homogenized at 0.25 h, 0.5 h, 1 h, 4 h and 8 h; for Compounds 19 and 32, and brain tissue samples were taken and homogenized at 0.25 h, 0.5 h, 1 h and 8 h (three SD rats were selected for the experiment of distribution in brain tissue at each time point), and the resulting brain tissue homogenate samples were stored at −80° C. The plasma samples and brain tissue homogenate samples were subjected to precipitation of protein, and then LC-MS/MS analysis was performed.
Pharmacokinetic parameters were calculated by means of non-compartmental model by using WinNonlin 6.3 software.

[4] = PO, 5 mg/kg, read-out: AUClast (plasma)

T2 sequence (P29274 whole entry): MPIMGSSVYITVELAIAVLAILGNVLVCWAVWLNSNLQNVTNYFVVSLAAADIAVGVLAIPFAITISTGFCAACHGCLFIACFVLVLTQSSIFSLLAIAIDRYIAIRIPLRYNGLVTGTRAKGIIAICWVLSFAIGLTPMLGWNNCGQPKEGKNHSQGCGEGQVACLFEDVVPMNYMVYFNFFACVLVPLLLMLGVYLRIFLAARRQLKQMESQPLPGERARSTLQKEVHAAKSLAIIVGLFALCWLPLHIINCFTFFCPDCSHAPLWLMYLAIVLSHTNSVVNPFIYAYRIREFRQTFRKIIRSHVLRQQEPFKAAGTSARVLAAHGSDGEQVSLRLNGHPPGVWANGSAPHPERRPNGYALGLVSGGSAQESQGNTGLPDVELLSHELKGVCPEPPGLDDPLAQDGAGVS

Compound	Ki [1]	Ki [2]	Ki(A1)/Ki(A2a) [2]	bioavailability [3]	Cmax ([3]; IV, 1 mg/kg)	AUC(0-t) ([3]; IV, 1 mg/kg, read-out: AUClast)	AUC(0-t) [3, 4]	AUClast (brain) ([3]; PO, 5 mg/kg)	Plasma AUClast/brain AUClast ([3]; PO, 5 mg/kg)
Cc1ncnc2ccc(-c3cnc(NC(=O)N4CCOCC4)nc3-c3ccc(F)cc3)cc12 [Compound 11, N-(4-(4-fluorophenyl)-5-(4-methylquinazolin-6-yl)pyrimidin-2-yl) morpholine-4-carboxamide]	204 nM	3.4 nM	59.9	65.3%	1310 ng/mL	985 ng·h/mL	3220 ng·h/mL	11.4 ng·h/g	282/1
Cc1cc(-c2cnc(NC(=O)N3CCOCC3)nc2-c2ccc(F)cc2)cc(Cl)n1 [Compound 19, N-(5-(2-chloro-6-methylpyridin-4-yl)-4-(4-fluorophenyl)pyrimidin-2-yl) morpholine-4-carboxamide]	1400 nM	9.6 nM	146.3	86.8%	1150 ng/mL	2630 ng·h/mL	11400 ng·h/mL	70.2 ng·h/g	163/1
